Results as given in article PMC3901310 (Analytical chemistry, 2013).
Read-outs that look alike come from different tables or passages of the source. Each block holds one molecule with its values, some of them ahead of it.

What was measured:
Assay type in all cases: binding
[1] = target: T1, Ribonuclease A (RNaseA) (Bos taurus, UniProt P61823); test: reactive liquid sample DESI-MS of the native complex, ligand titration
T1 sequence (P61823 27-150): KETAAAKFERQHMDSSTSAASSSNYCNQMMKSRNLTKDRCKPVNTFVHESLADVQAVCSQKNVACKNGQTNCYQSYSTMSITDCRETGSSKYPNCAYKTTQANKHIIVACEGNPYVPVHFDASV

[2] = target: T1, Ribonuclease A (RNaseA); test: reactive liquid sample DESI-MS of the native […] complex
[3] = target: T1, Ribonuclease A (RNaseA); test: as above; remark: listed apart in the source
[4] = target: lysozyme (Gallus gallus, UniProt P00698); test: as above
Chain of lysozyme (P00698 19-147): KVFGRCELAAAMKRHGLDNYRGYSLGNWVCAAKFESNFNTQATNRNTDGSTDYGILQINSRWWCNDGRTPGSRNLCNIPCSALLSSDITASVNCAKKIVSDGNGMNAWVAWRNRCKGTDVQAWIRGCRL

Kd [1]: 1.91 µM
SMILES: Nc1ccn([C@@H]2O[C@H](COP(=O)(O)OP(=O)(O)OP(=O)(O)O)[C@@H](O)[C@H]2O)c(=O)n1 [CTP, cytidine 5′-triphosphate]

reactive liquid sample DESI-MS of the native 1:1 complex ([holo]/[apo] ratio at [2]: 0.13±0.017
SMILES: Nc1ccn([C@@H]2O[C@H](CO)[C@@H](O)[C@H]2OP(=O)(O)O)c(=O)n1 [2′-CMP, cytidine 2′-monophosphate]

reactive liquid sample DESI-MS of the native 1:1 complex ([holo]/[apo] ratio at [3]: 0.37±0.04
SMILES: Nc1ccn([C@@H]2O[C@H](COP(=O)(O)OP(=O)(O)O)[C@@H](O)[C@H]2O)c(=O)n1 [CDP, cytidine 5′-diphosphate]

Kd [4]: 169 µM
SMILES: CC(=O)N[C@H]1[C@H](O[C@H]2[C@H](O)[C@@H](NC(C)=O)C(O)O[C@@H]2CO)O[C@H](CO)[C@@H](O[C@@H]2O[C@H](CO)[C@@H](O)[C@H](O)[C@H]2NC(C)=O)[C@@H]1O (stereo partly shown) [NAG3, N,N’,N’’-triacetylchitotriose]
